Data set [1] concerns the target T1, MavQ (Legionella pneumophila, UniProt Q5ZRA8).
T1 construct: gene lpg2975

Data set [2] addresses RavJ (Lpg0944) 1–230, purified (Legionella pneumophila str. Philadelphia-1) (UniProt Q5ZWY9). Description: crystal structure.
Data set [3] concerns the molecule itself. Description: crystal structure.

What is called stoichiometry N is the number of molecules, sites or subunits per partner or assembly.

Regarding `Nc1ncnc2c1ncn2[C@@H]1O[C@H](COP(=O)(O)OP(=O)(O)OP(=O)(O)O)[C@@H](O)[C@H]1O` [ATP], the ADP-Glo kinase assay entry in data set [1] is listed as “wild‐type MavQ, but not the D147A mutant, possesses robust ATP hydrolysis activity”.

In data set [2], “LegL1 (Lpg0945) 1–296, purified (from UniProt Q5ZWY8 1-296) (natural protein)” displayed a stoichiometry N of 1.

Take `CCCCCCCC(=O)OC[C@H](COP(=O)(O)O[C@@H]1[C@H](O)[C@H](O)[C@@H](O)[C@H](O)[C@H]1O)OC(=O)CCCCCCC` [PI diC8]: in data set [1], the ADP-Glo kinase assay result was “addition of phosphoinositide to this reaction increased the activity of the wild‐type MavQ fivefold”.

B1: Lem14 (Lpg1851) 1–220, purified and crystallised (natural protein)
chain: MSFELVAYEKLKGSIRESIITLIKSHNEKAKIIEDKLEYSVKEVSRERQPQVLVLLKTIELLDNSSKEPEDKARVLNALAYYIRDQIAATYKYTSPDNSDFYKSLTISLDLNKDNNPNREDLADMYSALEKFLRSHVYKNSDPRKGYLDKQPFAIKHYSVVDDILELSDRVHKLRHEIIIAARDLHLLQQKPKSSQGGLFSVPSGKEKVTDTHEVANHRL
Consider B1, for which the “stoichiometry N” value in data set [3] was found to be 2.
